From patent US9279806B2, “Water-soluble AIE luminogens for monitoring and retardation of fibrillation of amyloid proteins” (THE HONG KONG UNIVERSITY OF SCIENCE AND TECHNOLOGY, priority 2005, dated 2016)

Assays:
H21 = test: Job plots for the binding of TTAPE to H21
Procedure: The sum of TTAPE and DNA concentrations was kept at 10 μM. Fluorescent intensities for the bound TTAPE at 470 nm are normalized to the maximum increase in each case. The y-axis represents the difference in PL intensity for mole fraction of ligand (χL) in DNA. Intercept mole fraction values were determined from least-squares fits to the linear data portions, giving yjni values of 0.50 (1:1 stoichiometry) for H21 in K-Tris, 0.67 […] for H21 in Na-Tris, and 0.75 […] for H21 in Tris-HCl, respectively.

[1] = tested on: ctDNA/RNA from torula yeast/BSA; test: Fluorescence increments / binding isotherm with ctDNA, RNA and BSA; conditions: dye 5 μM
Procedure: FIG. 8 illustrates increments of fluorescence of TPE-C2N^+ (8), N+C2-TPE-C2N^+ (9), TPE-C4N^+ (10), N+C4-TPE-C4N^+ (11) when binding with 10 μg/ml ctDNA/10 μg/ml RNA diethylaminoethanol (DEAE) salt from torula yeast/10 μg/ml RNA from torula yeast in buffer solution pH=7. Concentration of dyes: 5 μM; excitation wavelength: 350 nm. The four cationic TPE derivatives display larger FL enhancement in the presence of DNA than that of RNA.
FIG. 9 illustrates the binding isotherm of N+C2-TPE-C2N^+ (5 μM) to ctDNA/RNA from torula yeast/BSA (plot of the fluorescence intensity at 470 nm for ctDNA/RNA, and at 467 nm for BSA) in aqueous phosphate buffer (pH=7.0).

[2] = tested on: G1 (ssDNA that mimics human telomeric sequence) / G-quadruplex; test: DNA probing and quadruplex recognition by FL/CD of TTAPE with G1; assay type: binding
Procedure: G1 is a 21-mer ssDNA that mimics human telomeric sequence. When the DNA is added into a solution of TTAPE in a Tris-HCl buffer, the solution starts to luminesce (FIG. 27A). Similar FL “lightup” phenomenon has been observed in the thiazole orange system. The I/I0 ratio of TTAPE at 470 nm increases rapidly in a narrow DNA concentration range and reaches its maximum at [G1]=5 μM (FIG. 27B). While conventional FL dyes suffer from self-quenching problems at high dye concentrations, the FL of TTAPE is continuously intensified with increasing its concentration (FIG. 28 and FIG. 27B), thanks to its unique AIE feature. In the aqueous buffer, the cationic dye spontaneously binds to the anionic DNA via electrostatic attraction, resulting in the formation of a TTAPE/G1 complex. Hydrophobic interaction between TTAPE and G1 may have also played a role in the binding process. These intermolecular forces lock conformations of the TTAPE molecules bound to the G1 strands. Consequently, the intramolecular rotations of TTAPE are restricted, which thus blocks its radiationless relaxation pathways and activates its FL process.
A complex of ssDNA and TTAPE was prepared by mixing 10 μL G 1 (0.1 mM) and 50 μL TTAPE (0.01 mM) in 5 mM Tris-HCl buffer in a 1.5 ml Eppendorf cup. The solution was incubated at 4° C. for 30 min. G-quadruplex formation was induced by adding 10 μl of a 1.0 M KCl solution into the Eppendorf cup. The final concentrations of TTAPE and G1 were kept at 4.5 and 9.0 μM, respectively. For other cationic species, the same amounts of corresponding salts were used. Kinetic experiment was conducted immediately after the injection of the cationic solution, while other spectral measurements were performed after an incubation period of 30 min.
DNA samples of G1, C1 and C2 were obtained from Operon in desalt purity and used without further purification. G1 was chosen as a model ssDNA mimicking the human telomeric repeat sequence d(T2AG3), which is capable of forming intramolecular G-quadruplex. Concentrations of the DNA strands were determined by measuring their absorptivity (E) values at 260 nm in a 100 μL quartz cuvette [ε(×10^5 M^−1 cm^−1): 2.14 (G1), 1.85 (C1), 1.85 (C2)]. Water was purified by a Millipore filtration system. Buffer solution was prepared by titrating 5 mM Tris with HCl until its pH value reached 7.50. All experiments were performed at room temperature unless otherwise specified.

Solubility = assay type: physicochemical
HG21 DNA = test: CD spectra: G-quadruplex induction by TPE derivatives; assay type: biochemical; conditions: 9 μM DNA, 4.5 μM TPE derivative, Tris-HCl pH 7.5, 25 °C
Procedure: [TPE]=4.5 μM; [HG21]=9 μM and [K^+]=0.5 M.
CD spectral profiles of 9 μM DNA in 5 mM Tris-HCl buffer solutions (pH 7.5) incubated under 25° C. with four different TPE derivatives at 4.5 μM or with 0.5M K^+ ions are studied (FIG. 77). TPE derivatives 1-4 are TTAPE (Example 6), TPE-2 (chemical structure is not shown herein), TPE-3 (chemical structure is not shown herein) and TPE-C2N+ (Example 3), respectively. […] On the other hand, DNA incubated with TTAPE or the known quadruplex inducer; K^+ ions have very similar spectral profiles, while the ellipticities of DNA/TTAPE are somehow weaker than DNA/K^+.

[3] = entry 1: K+ added to TTAPE/G1 mixture, room temperature
[4] = entry 2: G1 added to TTAPE/K+ mixture
[5] = entry 3: TTAPE added to G1/K+ mixture

- Job plot intercept mole fraction (H21; H21 in K-Tris buffer pH 7.50): 0.50
- Job plot intercept mole fraction (H21; H21 in Na-Tris buffer pH 7.50): 0.67
- Job plot intercept mole fraction (H21; H21 in Tris-HCl buffer pH 7.50): 0.75
- Variety of FL in presence of DNA and RNA compared with TPE-C2N+ and TPE-C4N+ ([1]; 10 μg/ml ctDNA or RNA): much larger variety of FL
- Solubility in water (Solubility): completely soluble in water
SMILES: CC[N+](CC)(CC)CCOc1ccc(C(=C(c2ccc(OCC[N+](CC)(CC)CC)cc2)c2ccc(OCC[N+](CC)(CC)CC)cc2)c2ccc(OCC[N+](CC)(CC)CC)cc2)cc1.[Br-].[Br-].[Br-].[Br-] [TTAPE, 1,1,2,2-tetrakis[4-(2-triethylammonioethoxy)phenyl]ethene tetrabromide]
- Relative affinity to DNA, RNA and proteins ([1]; aqueous phosphate buffer pH 7.0): larger affinity to DNA than to RNA and proteins
- Red-shift of excitation and emission spectra on quadruplex formation ([2]; K+ added to TTAPE/G1): ~20 nm
- G1 concentration at which I/I0 at 470 nm reaches its maximum ([2]; TTAPE 4.5 μM in Tris-HCl buffer): 5 µM
- CD intensity (relative intensity at 295 nm) [2, 3]: 1.00
- FL intensity (relative intensity at 492 nm) [2, 3]: 1.00
- CD intensity (relative intensity at 295 nm) [2, 4]: 0.92
- FL intensity (relative intensity at 492 nm) [2, 4]: 0.82
- CD intensity (relative intensity at 295 nm) [2, 5]: 0.88
- FL intensity (relative intensity at 492 nm) [2, 5]: 0.70
- G-quadruplex induction (CD spectral profile) (HG21 DNA): acts as an internal quadruplex inducer under 25 °C
